Results as given in patent publication US4404217A, “3-Indolyl alkylene amino propanols and cardiovascular compositions thereof” (C. M. Industries, priority 1979, dated 1983).
Like-named read-outs stand apart in the source and are kept apart here.

Legend:
α1 receptor = test: Displacement of 3H WB 4101, plasmic membranes of rat brains; type: binding; conditions: for affinity for the receptor with WB 4101 (α1): in vitro; for EC50: read-out: EC50 of DISPLACEMENT of 3H WB 4101, rat brain membranes, 3H WB4101 0.2×10^-9 M
Experimental: (§1) The binding tests are effected on suspensions of plasmic membranes coming from various organs. The suspensions of membranes are placed in incubation with the tritiated ligand and various concentrations of products to be tested. After incubation, each test is filtered on GFB(Whatman) filter, the filters are dried and introduced into counting flasks. The measurement of the radioactivity is assessed by scintillation in a liquid medium.
(§2) The tests were made on plasmic membranes of rat brains, in the presence of ^3 H clonidine 1.2×10^-9 M (α2 receptor) and of ^3 H WB4101 (N-[2-(2.6dimethoxyphenoxy)ethyl]1.4benzodioxane-2-methylamine), 0.2×10^-9 M (α1 receptor).

[1] = target: T1, β adrenergic receptors (β1) (Canis lupus familiaris, UniProt P79148); test: Antagonism of the effects of isoprenaline, tachycardia (β1), anaesthetized dog, IV; type: in vivo; conditions: for cardioselectivity β1 - β2 / ED50: dog; for cardioselectivity β1 - β2: isoprenaline antagonism, β1 versus β2; for ED50: read-out: ID50 ISOPRENALINE β1; for cardioselective in vivo (selectively inhibit the cardiac receptors): test with isoprenaline
T1 construct: The dog is anaesthetized using sodium pentobarbital; from tissue; host or cells: whole anaesthetized dog (heart)

[2] = target: T2, β adrenergic receptors (β2) (Canis lupus familiaris, UniProt P54833); test: Antagonism of the effects of isoprenaline, hypotension (β2), anaesthetized dog, IV; type: in vivo; conditions: read-out: ID50 ISOPRENALINE β2
T2 construct: The dog is anaesthetized using sodium pentobarbital; from tissue; host or cells: whole anaesthetized dog (vasculature)
Experimental: (§3) The dog is anaesthetized using sodium pentobarbital, administered by the IV route at a dose of 30 mg/kg. A cannula placed in the saphenous vein allows the intra-venous injections of the products. The animal is submitted to intubation and is allowed to breathe spontaneously.
(§4) The cardiac frequency and the systemic arterial pressure are studied and the variations of these parameters are observed after intra-venous injection of the product to be tested. Each product is tested with increasing doses.
The antagonism of the products with respect to the β stimulant cardio-vascular effects of isoprenaline on the β adrenergic receptors has been sought. […] The last column indicates the cardioselectivity (β1 >β2) or a low cardioselectivity β1 ≥β2, or no cardioselectivity β1 <β2 and β1 =β2.

β2 receptors = target: T3, β2 receptors (Rattus norvegicus, UniProt P10608); test: Displacement of 3H dihydroalprenolol, plasmic membranes of lungs of rats; type: binding
T3 construct: lungs of rats (β2 receptors); from tissue; host or cells: rat lung plasma membranes
Experimental: as §1
(§5) The tests were made on plasmic membranes of hearts of dogs (β1 receptor) and lungs of rats (β2 receptors), in the presence of ^3 H dihydroalprenolol 4×10^-9 M.

[3] = Cardiac frequency and arterial pressure in the anaesthetized dog after intravenous injection; type: in vivo; conditions: i.v. route, anaesthetised dog
Experimental: as §3, §4

α2 receptor = target: T4, α2 receptor (Rattus norvegicus, UniProt P22909); test: Displacement of 3H clonidine, plasmic membranes of rat brains; type: binding; conditions: for affinity for the receptor with clonidine (α2): in vitro
T4 construct: plasmic membranes of rat brains; from tissue; host or cells: rat brain plasma membranes
T4 sequence (P22909 1-465): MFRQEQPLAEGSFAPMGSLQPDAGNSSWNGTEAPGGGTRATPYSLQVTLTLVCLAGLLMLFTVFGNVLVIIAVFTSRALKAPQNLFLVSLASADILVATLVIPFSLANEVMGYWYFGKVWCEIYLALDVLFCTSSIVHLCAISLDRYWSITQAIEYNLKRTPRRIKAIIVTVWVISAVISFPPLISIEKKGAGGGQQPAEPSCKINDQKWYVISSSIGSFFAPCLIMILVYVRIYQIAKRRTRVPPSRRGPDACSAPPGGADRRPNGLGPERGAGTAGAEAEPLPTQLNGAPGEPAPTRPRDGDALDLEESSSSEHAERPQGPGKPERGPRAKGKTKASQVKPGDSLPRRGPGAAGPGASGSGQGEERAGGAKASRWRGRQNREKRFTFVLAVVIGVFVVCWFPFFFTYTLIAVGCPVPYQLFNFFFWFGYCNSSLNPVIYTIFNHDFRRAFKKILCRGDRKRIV
Experimental: as §1, §2

β1 receptor = target: T5, β1 receptor (Canis lupus familiaris, UniProt P79148); test: Displacement of 3H dihydroalprenolol, plasmic membranes of hearts of dogs; type: binding, dog
T5 construct: plasmic membranes of hearts of dogs (β1 receptor); from tissue; host or cells: dog heart plasma membranes
Experimental: as §1, §5

α adrenergic receptors = test: Antagonism of the effects of noradrenaline (pressure response), anaesthetized dog, IV; type: in vivo; conditions: 50% inhibition of pressure response to noradrenaline
Experimental: as §3, §4
The antagonism of the products with respect to the vascular effects provoked by the IV administration of noradrenaline on the α adrenergic receptors has been sought. The results presented in Table III are expressed in ID50 : it is the dose (mg/kg) which provokes the inhibition by 50% of the pressure response due to the IV administration of noradrenaline.

platelet aggregation = test: Anti-aggregating activity, BORN technique, plasma rich in platelets, ADP; type: cell-based, human; conditions: for IC50: Homo sapiens, Platelet, read-out: concentration for inhibiting by 50% the maximum rate of aggregation; for inhibition of the platelet response with respect to the ADP: human platelet-rich plasma
Experimental: The anti-aggregating activity of the CM 7743, 7744, 7824, 7854, 7859 and 7874 has been studied according to the BORN technique on plasma rich in platelets of human origin. ADP has been used as indicator of platelet aggregation. […] The required concentration for inhibiting by 50% the maximum rate of aggregation varies from 45 to 100 μM.

[4] = IV, 50% inhibition of isoprenaline hypotension

T2 sequence (P54833 whole entry): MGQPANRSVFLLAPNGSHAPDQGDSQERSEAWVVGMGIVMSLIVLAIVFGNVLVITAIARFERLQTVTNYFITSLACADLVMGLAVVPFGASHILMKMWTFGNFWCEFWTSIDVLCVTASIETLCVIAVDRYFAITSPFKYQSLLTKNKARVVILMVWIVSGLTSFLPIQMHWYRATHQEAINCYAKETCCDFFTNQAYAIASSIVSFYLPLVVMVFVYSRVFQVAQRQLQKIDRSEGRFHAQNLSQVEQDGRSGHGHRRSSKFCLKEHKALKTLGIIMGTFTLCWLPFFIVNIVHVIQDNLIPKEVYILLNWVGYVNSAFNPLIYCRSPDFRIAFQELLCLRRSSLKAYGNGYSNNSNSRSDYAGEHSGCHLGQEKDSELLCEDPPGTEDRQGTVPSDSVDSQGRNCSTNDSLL
T1 sequence (P79148 whole entry): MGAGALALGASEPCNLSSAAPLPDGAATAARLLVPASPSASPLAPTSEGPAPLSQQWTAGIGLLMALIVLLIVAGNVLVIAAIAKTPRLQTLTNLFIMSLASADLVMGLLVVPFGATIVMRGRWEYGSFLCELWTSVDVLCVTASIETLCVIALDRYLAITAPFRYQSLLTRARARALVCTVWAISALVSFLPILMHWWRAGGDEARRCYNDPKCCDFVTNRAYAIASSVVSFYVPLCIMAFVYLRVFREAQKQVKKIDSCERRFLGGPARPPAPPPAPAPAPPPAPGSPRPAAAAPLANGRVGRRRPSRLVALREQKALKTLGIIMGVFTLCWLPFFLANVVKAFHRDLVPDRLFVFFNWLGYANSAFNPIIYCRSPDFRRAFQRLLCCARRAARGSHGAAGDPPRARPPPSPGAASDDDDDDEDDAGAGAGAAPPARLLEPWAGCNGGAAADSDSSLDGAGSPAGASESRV
T5 sequence (P79148 whole entry): as above
T3 sequence (P10608 whole entry): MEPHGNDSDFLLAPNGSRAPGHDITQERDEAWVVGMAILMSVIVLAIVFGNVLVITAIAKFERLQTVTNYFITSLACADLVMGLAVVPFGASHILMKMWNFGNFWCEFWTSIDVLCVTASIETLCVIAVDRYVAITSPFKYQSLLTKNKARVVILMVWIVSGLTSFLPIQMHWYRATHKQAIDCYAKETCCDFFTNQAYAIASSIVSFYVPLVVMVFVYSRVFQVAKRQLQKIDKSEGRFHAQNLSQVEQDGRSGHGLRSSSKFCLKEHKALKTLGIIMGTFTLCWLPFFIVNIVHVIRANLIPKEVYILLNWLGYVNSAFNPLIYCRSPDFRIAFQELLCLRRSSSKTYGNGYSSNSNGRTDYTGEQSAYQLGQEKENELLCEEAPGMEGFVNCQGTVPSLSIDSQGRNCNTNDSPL

SMILES	affinity for the receptor with WB 4101 (α1) (α1 receptor)	EC50 (α1 receptor) [µM]	cardioselectivity β1 - β2 ([1]; IV)	ED50 ([1]; iv) [mg/kg]	cardioselective in vivo (selectively inhibit the cardiac receptors) [1]	ED50 [2, 4] [mg/kg]	EC50 (β2 receptors) [µM]	reduction in the peripheral arterial pressure [3]	EC50 (α2 receptor) [µM]	EC50 (β1 receptor) [µM]	ID50 NORADRENALINE α (α adrenergic receptors) [mg/kg]	IC50 (platelet aggregation) [µM]	inhibition of the platelet response with respect to the ADP (platelet aggregation)	ED50 ([2]; iv) [mg/kg]	affinity for the receptor with clonidine (α2) (α2 receptor)	ED50 ([1]; IV, 50% inhibition of isoprenaline tachycardia) [mg/kg]	EC50 (β2 receptors; rat lung membranes, 3H dihydroalprenolol 4×10^-9 M) [µM]	EC50 (α2 receptor; rat brain membranes, 3H clonidine 1.2×10^-9 M) [µM]	EC50 (β1 receptor; dog heart membranes, 3H dihydroalprenolol 4×10^-9 M) [µM]
Cc1ccccc1OCC(O)CNC(C)Cc1c[nH]c2ccccc12 (centres unmarked) [compound 7744]	have an affinity	0.5	β1 > β2 (cardioselectivity (β1 >β2))	0.1	cardioselective in vivo	≥ 0.3	0.052	reduction in the peripheral arterial pressure	0.0205	0.031	0.1 to 1	45 to 100	inhibited the platelet response	–	–	–	–	–	–
CC(Cc1c[nH]c2ccccc12)NCC(O)COc1ccccc1[N+](=O)[O-] (centres unmarked) [compound 7808]	have an affinity	0.32	β1 > β2 (cardioselectivity (β1 >β2))	0.3	cardioselective in vivo	–	0.024	reduction in the peripheral arterial pressure	0.025	0.0285	0.3	–	–	1	no affinity	–	–	–	–
CC(Cc1c[nH]c2ccccc12)NCC(O)COc1ccccc1C#N (centres unmarked) [compound 7824]	have an affinity	0.11	β1 ≥ β2 (low cardioselectivity β1 ≥β2)	0.3	–	–	0.01	reduction in the peripheral arterial pressure	–	0.0135	1	45 to 100	inhibited the platelet response	≥ 0.3	no affinity	–	–	–	–
CC(Cc1c[nH]c2ccccc12)NCC(O)COc1cccc2[nH]ccc12 (centres unmarked) [compound 7874]	have an affinity	0.215	β1 ≥ β2 (low cardioselectivity β1 ≥β2)	0.01	–	0.01 to 0.03	0.0082	reduction in the peripheral arterial pressure	0.02	0.004	> 0.03	45 to 100	inhibited the platelet response	–	–	–	–	–	–
Cc1ccccc1OC[C@H](O)CN[C@H](CO)Cc1c[nH]c2ccccc12 [compound 7903]	–	0.0019	β1 < β2 (no cardioselectivity β1 <β2)	–	–	1	–	reduction in the peripheral arterial pressure	–	–	3	–	–	–	no affinity	3	2	0.0295	2.05
